Results from publication PMC6934184, “Selective DNA-PKcs inhibition extends the therapeutic index of localized radiotherapy and chemotherapy” (The Journal of Clinical Investigation, 2019).

Target: T1, EPHB1 (Homo sapiens, UniProt P54762)
T1 construct: purchased Thermo Fisher Scientific (Life Technologies) SelectScreen
Test: SelectScreen Z'LYTE
Type: biochemical
Method in brief: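 Percent values come from Thermo SelectScreen profiling of NU5455, combining activity and binding assays. CSF1R was run in Z'LYTE format at Km app ATP, and CAMK1 in Adapta format with ATP listed at 10.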

T1 sequence (P54762 18-984): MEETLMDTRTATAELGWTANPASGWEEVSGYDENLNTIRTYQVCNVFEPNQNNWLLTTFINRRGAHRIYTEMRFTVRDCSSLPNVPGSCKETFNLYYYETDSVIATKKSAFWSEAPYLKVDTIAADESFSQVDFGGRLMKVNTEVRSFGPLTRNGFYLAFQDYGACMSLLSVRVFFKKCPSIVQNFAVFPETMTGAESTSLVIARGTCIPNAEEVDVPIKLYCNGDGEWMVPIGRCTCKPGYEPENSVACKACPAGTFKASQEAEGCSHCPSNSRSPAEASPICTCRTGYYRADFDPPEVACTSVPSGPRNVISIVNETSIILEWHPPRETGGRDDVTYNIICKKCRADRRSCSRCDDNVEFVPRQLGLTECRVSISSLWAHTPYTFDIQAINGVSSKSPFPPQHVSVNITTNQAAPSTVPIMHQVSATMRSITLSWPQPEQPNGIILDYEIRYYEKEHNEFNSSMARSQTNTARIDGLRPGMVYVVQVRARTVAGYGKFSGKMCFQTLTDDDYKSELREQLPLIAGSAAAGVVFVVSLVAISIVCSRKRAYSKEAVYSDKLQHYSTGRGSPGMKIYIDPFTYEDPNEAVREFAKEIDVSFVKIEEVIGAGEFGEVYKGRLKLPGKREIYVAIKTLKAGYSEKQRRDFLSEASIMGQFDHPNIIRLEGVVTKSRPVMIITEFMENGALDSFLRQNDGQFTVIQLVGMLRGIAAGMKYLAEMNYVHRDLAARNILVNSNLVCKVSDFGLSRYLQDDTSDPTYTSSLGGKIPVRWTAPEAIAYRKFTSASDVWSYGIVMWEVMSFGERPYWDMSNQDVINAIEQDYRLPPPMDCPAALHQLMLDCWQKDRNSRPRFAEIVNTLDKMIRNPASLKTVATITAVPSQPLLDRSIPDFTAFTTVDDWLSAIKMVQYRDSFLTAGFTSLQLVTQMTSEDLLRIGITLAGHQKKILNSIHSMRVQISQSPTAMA

## CN(C(=O)CN1CCOCC1)c1ccc2sc3c(-c4cccc5c(=O)cc(N6CC7CCC(C6)O7)oc45)cccc3c2c1 [NU5455]
  inhibition at 1 µM: 5.1%
